Measurements as given in BindingDB's records for doi:10.1021/jm0009181 (National Center For Genetic Engineering and Biotechnology …, 2000).

target: Bifunctional dihydrofolate reductase-thymidylate synthase (Plasmodium falciparum, UniProt A7UD81); experiment: Evaluated for inhibition constant (Ki wt) against Wild-type dihydrofolate reductase of Plasmodium falciparum
Sequence (A7UD81 whole entry): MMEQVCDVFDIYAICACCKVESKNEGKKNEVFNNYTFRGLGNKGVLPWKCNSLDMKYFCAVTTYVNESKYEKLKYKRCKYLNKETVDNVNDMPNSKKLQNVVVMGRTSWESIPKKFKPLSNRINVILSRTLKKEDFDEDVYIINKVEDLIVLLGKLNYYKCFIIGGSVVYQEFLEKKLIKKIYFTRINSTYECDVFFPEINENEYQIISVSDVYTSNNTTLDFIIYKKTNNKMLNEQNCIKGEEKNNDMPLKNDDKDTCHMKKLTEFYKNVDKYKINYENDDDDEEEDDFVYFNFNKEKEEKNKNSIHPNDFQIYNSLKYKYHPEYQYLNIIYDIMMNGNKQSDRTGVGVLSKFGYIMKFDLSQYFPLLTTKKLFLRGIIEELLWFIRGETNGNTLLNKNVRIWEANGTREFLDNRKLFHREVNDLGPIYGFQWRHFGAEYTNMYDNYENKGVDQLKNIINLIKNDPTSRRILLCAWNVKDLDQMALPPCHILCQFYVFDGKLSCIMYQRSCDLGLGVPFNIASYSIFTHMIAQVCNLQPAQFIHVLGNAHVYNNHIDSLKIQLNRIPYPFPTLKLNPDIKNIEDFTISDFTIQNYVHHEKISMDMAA

Ki	Compound
5.7 nM	CCC1N=C(N)N=C(N)N1c1ccc(Br)cc1 (stereo unspecified) [1-(4-Bromo-phenyl)-6-ethyl-1,6-dihydro-[1,3,5]triazine-2,4-diamine]
23 nM	Cc1ccc(N2C(N)=NC(N)=NC2C)cc1 (stereo unspecified) [6-Methyl-1-p-tolyl-1,6-dihydro-[1,3,5]triazine-2,4-diamine]
3.7 nM	CCCCC1N=C(N)N=C(N)N1c1ccc(Cl)cc1 (stereo unspecified) [6-Butyl-1-(4-chloro-phenyl)-1,6-dihydro-[1,3,5]triazine-2,4-diamine]
13.7 nM	CCCC1N=C(N)N=C(N)N1c1ccc(C)cc1 (stereo unspecified) [6-Propyl-1-p-tolyl-1,6-dihydro-[1,3,5]triazine-2,4-diamine]
60.5 nM	CC(C)C1N=C(N)N=C(N)N1c1ccc(Cl)cc1 (stereo unspecified) [1-(4-Chloro-phenyl)-6-isopropyl-1,6-dihydro-[1,3,5]triazine-2,4-diamine]
24.4 nM	NC1=NCN(c2ccc(Cl)cc2)C(N)=N1 [1-(4-Chloro-phenyl)-1,6-dihydro-[1,3,5]triazine-2,4-diamine]
30 nM	CC(C)C1N=C(N)N=C(N)N1c1ccc(Br)cc1 (stereo unspecified) [1-(4-Bromo-phenyl)-6-isopropyl-1,6-dihydro-[1,3,5]triazine-2,4-diamine]
5.9 nM	CCC1N=C(N)N=C(N)N1c1ccc(C)cc1 (stereo unspecified) [6-Ethyl-1-p-tolyl-1,6-dihydro-[1,3,5]triazine-2,4-diamine]
4.6 nM	CC1(C)N=C(N)N=C(N)N1c1ccc(F)cc1 [1-(4-Fluoro-phenyl)-6,6-dimethyl-1,6-dihydro-[1,3,5]triazine-2,4-diamine]
5.7 nM	CC1N=C(N)N=C(N)N1c1ccc(Br)cc1 (stereo unspecified) [1-(4-Bromo-phenyl)-6-methyl-1,6-dihydro-[1,3,5]triazine-2,4-diamine]
1.4 nM	CC1N=C(N)N=C(N)N1c1ccc(Cl)c(Cl)c1 (stereo unspecified) [1-(3,4-Dichloro-phenyl)-6-methyl-1,6-dihydro-[1,3,5]triazine-2,4-diamine]
329 nM	NC1=NCN(c2ccccc2)C(N)=N1 [1-Phenyl-1,6-dihydro-[1,3,5]triazine-2,4-diamine]
7.7 nM	Cc1ccc(N2C(N)=NC(N)=NC2c2ccccc2)cc1 (stereo unspecified) [6-Phenyl-1-p-tolyl-1,6-dihydro-[1,3,5]triazine-2,4-diamine]
3.6 nM	CCC1N=C(N)N=C(N)N1c1ccc(Cl)cc1 (stereo unspecified) [1-(4-Chloro-phenyl)-6-ethyl-1,6-dihydro-[1,3,5]triazine-2,4-diamine]
270 nM	NC1=NCN(c2ccc(F)cc2)C(N)=N1 [1-(4-Fluoro-phenyl)-1,6-dihydro-[1,3,5]triazine-2,4-diamine]
2.6 nM	CCCC1N=C(N)N=C(N)N1c1ccc(Br)cc1 (stereo unspecified) [1-(4-Bromo-phenyl)-6-propyl-1,6-dihydro-[1,3,5]triazine-2,4-diamine]
20 nM	CC1(C)N=C(N)N=C(N)N1c1ccccc1 [6,6-Dimethyl-1-phenyl-1,6-dihydro-[1,3,5]triazine-2,4-diamine]
2.9 nM	NC1=NC(c2ccccc2)N(c2ccc(Br)cc2)C(N)=N1 (stereo unspecified) [1-(4-Bromo-phenyl)-6-phenyl-1,6-dihydro-[1,3,5]triazine-2,4-diamine]
167 nM	Cc1ccc(N2C(N)=NC(N)=NC2C(C)C)cc1 (stereo unspecified) [6-Isopropyl-1-p-tolyl-1,6-dihydro-[1,3,5]triazine-2,4-diamine]
4.6 nM	CCCC1N=C(N)N=C(N)N1c1ccc(Cl)cc1 (stereo unspecified) [1-(4-Chloro-phenyl)-6-propyl-1,6-dihydro-[1,3,5]triazine-2,4-diamine]

Compound	Ki
CC1(C)N=C(N)N=C(N)N1c1ccc(Br)cc1 [1-(4-Bromo-phenyl)-6,6-dimethyl-1,6-dihydro-[1,3,5]triazine-2,4-diamine]	1.1 nM
